Literature values in article PMC8146789, “20-Hydroxyecdysone, from Plant Extracts to Clinical Use: Therapeutic Potential for the Treatment of Neuromuscular, Cardio-Metabolic and Respiratory Diseases” (Biomedicines, 2021).
Where two headings read alike, the source gives them in different places.

How the values were obtained:
[1] = tested on: Hymenolepiasis; parameters: method as in PMID 22536744; settings: 5 mg 3×/day, 2 weeks; ref [169]; cited from earlier work
[2] = tested on: Erβ; parameters: method as in PMID 24974955; settings: ref [54]; cited from earlier work
[3] = parameters: method as in PMID 4650153; settings: mice, oral; ref [122]; cited from earlier work
[4] = parameters: method as in ref [174] = [174]; 174. Thole S.W. The Metabolic Syndrome: The Effects of β-ecdysone on Selected Body Parameters and Serum Lipids on the Metabolic Syndrome Ph.D. Thesis University of Göttingen Göttingen, Germany 2018; settings: ref [174], cited from earlier work
[5] = tested on: rats; settings: long-term feeding 0.2–2 g/kg/day, ref [121]; cited from earlier work
[6] = parameters: method as in Wu et al. [124]; settings: mice, ref Wu et al. [124], cited from earlier work
[7] = alcohols; cited from earlier work
[8] = patients with metabolic syndrome

SMILES: CC(C)(O)CC[C@@H](O)[C@](C)(O)[C@H]1CC[C@@]2(O)C3=CC(=O)[C@@H]4C[C@@H](O)[C@@H](O)C[C@]4(C)[C@H]3CC[C@]12C [20E, 2β,3β,14α,20R,22R,25-hexahydroxy-5β-cholest-7-en-6-one]
- parasitological efficacy [1]: 36.4%
- symptoms [1]: Reduction in symptoms
- activation of ERE reporter gene [2]: could be activated dose dependently
- bioavailability [3]: low
- radioactivity crossing the intestinal tract, of that administered [3]: < 2%
- route of elimination [3]: essentially fecal
- output of metabolic syndrome study ([4]; 40 or 90 mg/day, 3–6–9 months): Reductions in body mass, proportion of body fat, waist cicumference and hsCRP, retention of muscle mass
- body parameters versus control group [4, 8]: continuous and significant loss of body mass, fat percentage, and waist diameter
- effect on serum lipids [4, 8]: no significant effect on serum lipids
- hsCRP level [4, 8]: marked reduction
- subacute toxicity [5]: no subacute toxicity was observed
- quantitative distribution, Adrenals ([6]; 5 min): 0.184 µg/g
- quantitative distribution, Bile ([6]; 5 min): 0.421 µg/g
- quantitative distribution, Bladder ([6]; 5 min): 0.013 µg/g
- quantitative distribution, Blood plasma ([6]; 5 min): 0.061 µg/g
- quantitative distribution, Brain ([6]; 5 min): 0.013 µg/g
- quantitative distribution, Feces ([6]; 5 min): 0.015 µg/g
- quantitative distribution, Heart ([6]; 5 min): 0.062 µg/g
- quantitative distribution, Kidney ([6]; 5 min): 0.137 µg/g
- quantitative distribution, Large intestine ([6]; 5 min): 0.011 µg/g
- quantitative distribution, Liver ([6]; 5 min): 0.312 µg/g
- quantitative distribution, Lungs ([6]; 5 min): 0.116 µg/g
- quantitative distribution, Skeletal muscle ([6]; 5 min): 0.021 µg/g
- quantitative distribution, Small intestine ([6]; 5 min): 0.254 µg/g
- quantitative distribution, Spinal cord ([6]; 5 min): 0.019 µg/g
- quantitative distribution, Spleen ([6]; 5 min): 0.041 µg/g
- quantitative distribution, Stomach ([6]; 5 min): 0.034 µg/g
- quantitative distribution, Testis ([6]; 5 min): 0.048 µg/g
- quantitative distribution, Urine ([6]; 5 min): 0.482 µg/g
- quantitative distribution, Adrenals ([6]; 10 min): 0.139 µg/g
- quantitative distribution, Bile ([6]; 10 min): 0.456 µg/g
- quantitative distribution, Bladder ([6]; 10 min): 0.024 µg/g
- quantitative distribution, Blood plasma ([6]; 10 min): 0.057 µg/g
- quantitative distribution, Brain ([6]; 10 min): 0.014 µg/g
- quantitative distribution, Feces ([6]; 10 min): 0.019 µg/g
- quantitative distribution, Heart ([6]; 10 min): 0.052 µg/g
- quantitative distribution, Kidney ([6]; 10 min): 0.123 µg/g
- quantitative distribution, Large intestine ([6]; 10 min): 0.023 µg/g
- quantitative distribution, Liver ([6]; 10 min): 0.251 µg/g
- quantitative distribution, Lungs ([6]; 10 min): 0.069 µg/g
- quantitative distribution, Skeletal muscle ([6]; 10 min): 0.023 µg/g
- quantitative distribution, Small intestine ([6]; 10 min): 0.139 µg/g
- quantitative distribution, Spinal cord ([6]; 10 min): 0.028 µg/g
- quantitative distribution, Spleen ([6]; 10 min): 0.026 µg/g
- quantitative distribution, Stomach ([6]; 10 min): 0.047 µg/g
- quantitative distribution, Testis ([6]; 10 min): 0.036 µg/g
- quantitative distribution, Urine ([6]; 10 min): 0.921 µg/g
- quantitative distribution, Adrenals ([6]; 30 min): 0.098 µg/g
- quantitative distribution, Bile ([6]; 30 min): 1.042 µg/g
- quantitative distribution, Bladder ([6]; 30 min): 0.038 µg/g
- quantitative distribution, Blood plasma ([6]; 30 min): 0.052 µg/g
- quantitative distribution, Brain ([6]; 30 min): 0.015 µg/g
- quantitative distribution, Feces ([6]; 30 min): 0.035 µg/g
- quantitative distribution, Heart ([6]; 30 min): 0.035 µg/g
- quantitative distribution, Kidney ([6]; 30 min): 0.098 µg/g
- quantitative distribution, Large intestine ([6]; 30 min): 0.029 µg/g
- quantitative distribution, Liver ([6]; 30 min): 0.213 µg/g
- quantitative distribution, Lungs ([6]; 30 min): 0.057 µg/g
- quantitative distribution, Skeletal muscle ([6]; 30 min): 0.028 µg/g
- quantitative distribution, Small intestine ([6]; 30 min): 0.094 µg/g
- quantitative distribution, Spinal cord ([6]; 30 min): 0.067 µg/g
- quantitative distribution, Spleen ([6]; 30 min): 0.024 µg/g
- quantitative distribution, Stomach ([6]; 30 min): 0.075 µg/g
- quantitative distribution, Testis ([6]; 30 min): 0.029 µg/g
- quantitative distribution, Urine ([6]; 30 min): 1.534 µg/g
- quantitative distribution, Adrenals ([6]; 1 h): 0.081 µg/g
- quantitative distribution, Bile ([6]; 1 h): 0.901 µg/g
- quantitative distribution, Bladder ([6]; 1 h): 0.026 µg/g
- quantitative distribution, Blood plasma ([6]; 1 h): 0.047 µg/g
- quantitative distribution, Brain ([6]; 1 h): 0.013 µg/g
- quantitative distribution, Feces ([6]; 1 h): 0.068 µg/g
- quantitative distribution, Heart ([6]; 1 h): 0.033 µg/g
- quantitative distribution, Kidney ([6]; 1 h): 0.071 µg/g
- quantitative distribution, Large intestine ([6]; 1 h): 0.031 µg/g
- quantitative distribution, Liver ([6]; 1 h): 0.112 µg/g
- quantitative distribution, Lungs ([6]; 1 h): 0.053 µg/g
- quantitative distribution, Skeletal muscle ([6]; 1 h): 0.017 µg/g
- quantitative distribution, Small intestine ([6]; 1 h): 0.083 µg/g
- quantitative distribution, Spinal cord ([6]; 1 h): 0.041 µg/g
- quantitative distribution, Spleen ([6]; 1 h): 0.018 µg/g
- quantitative distribution, Stomach ([6]; 1 h): 0.061 µg/g
- quantitative distribution, Testis ([6]; 1 h): 0.026 µg/g
- quantitative distribution, Urine ([6]; 1 h): 0.281 µg/g
- quantitative distribution, Adrenals ([6]; 3 h): 0.073 µg/g
- quantitative distribution, Bile ([6]; 3 h): 0.301 µg/g
- quantitative distribution, Bladder ([6]; 3 h): 0.023 µg/g
- quantitative distribution, Blood plasma ([6]; 3 h): 0.032 µg/g
- quantitative distribution, Brain ([6]; 3 h): 0.012 µg/g
- quantitative distribution, Feces ([6]; 3 h): 0.099 µg/g
- quantitative distribution, Heart ([6]; 3 h): 0.031 µg/g
- quantitative distribution, Kidney ([6]; 3 h): 0.055 µg/g
- quantitative distribution, Large intestine ([6]; 3 h): 0.035 µg/g
- quantitative distribution, Liver ([6]; 3 h): 0.078 µg/g
- quantitative distribution, Lungs ([6]; 3 h): 0.049 µg/g
- quantitative distribution, Skeletal muscle ([6]; 3 h): 0.015 µg/g
- quantitative distribution, Small intestine ([6]; 3 h): 0.076 µg/g
- quantitative distribution, Spinal cord ([6]; 3 h): 0.033 µg/g
- quantitative distribution, Spleen ([6]; 3 h): 0.023 µg/g
- quantitative distribution, Stomach ([6]; 3 h): 0.053 µg/g
- quantitative distribution, Testis ([6]; 3 h): 0.023 µg/g
- quantitative distribution, Urine ([6]; 3 h): 0.102 µg/g
- quantitative distribution, Adrenals ([6]; 6 h): 0.065 µg/g
- quantitative distribution, Bile ([6]; 6 h): 0.209 µg/g
- quantitative distribution, Bladder ([6]; 6 h): 0.018 µg/g
- quantitative distribution, Blood plasma ([6]; 6 h): 0.023 µg/g
- quantitative distribution, Brain ([6]; 6 h): 0.01 µg/g
- quantitative distribution, Feces ([6]; 6 h): 0.931 µg/g
- quantitative distribution, Heart ([6]; 6 h): 0.029 µg/g
- quantitative distribution, Kidney ([6]; 6 h): 0.043 µg/g
- quantitative distribution, Large intestine ([6]; 6 h): 0.048 µg/g
- quantitative distribution, Liver ([6]; 6 h): 0.061 µg/g
- quantitative distribution, Lungs ([6]; 6 h): 0.045 µg/g
- quantitative distribution, Skeletal muscle ([6]; 6 h): 0.013 µg/g
- quantitative distribution, Small intestine ([6]; 6 h): 0.061 µg/g
- quantitative distribution, Spinal cord ([6]; 6 h): 0.024 µg/g
- quantitative distribution, Spleen ([6]; 6 h): 0.027 µg/g
- quantitative distribution, Stomach ([6]; 6 h): 0.041 µg/g
- quantitative distribution, Testis ([6]; 6 h): 0.021 µg/g
- quantitative distribution, Urine ([6]; 6 h): 0.096 µg/g
- quantitative distribution, Adrenals ([6]; 12 h): 0.052 µg/g
- quantitative distribution, Bile ([6]; 12 h): 0.198 µg/g
- quantitative distribution, Bladder ([6]; 12 h): 0.015 µg/g
- quantitative distribution, Blood plasma ([6]; 12 h): 0.015 µg/g
- quantitative distribution, Brain ([6]; 12 h): 0.008 µg/g
- quantitative distribution, Feces ([6]; 12 h): 0.312 µg/g
- quantitative distribution, Heart ([6]; 12 h): 0.023 µg/g
- quantitative distribution, Kidney ([6]; 12 h): 0.037 µg/g
- quantitative distribution, Large intestine ([6]; 12 h): 0.038 µg/g
- quantitative distribution, Liver ([6]; 12 h): 0.056 µg/g
- quantitative distribution, Lungs ([6]; 12 h): 0.036 µg/g
- quantitative distribution, Skeletal muscle ([6]; 12 h): 0.011 µg/g
- quantitative distribution, Small intestine ([6]; 12 h): 0.05 µg/g
- quantitative distribution, Spinal cord ([6]; 12 h): 0.020 µg/g
- quantitative distribution, Spleen ([6]; 12 h): 0.032 µg/g
- quantitative distribution, Stomach ([6]; 12 h): 0.032 µg/g
- quantitative distribution, Testis ([6]; 12 h): 0.019 µg/g
- quantitative distribution, Urine ([6]; 12 h): 0.087 µg/g
- quantitative distribution, Adrenals ([6]; 24 h): 0.043 µg/g
- quantitative distribution, Bile ([6]; 24 h): 0.094 µg/g
- quantitative distribution, Bladder ([6]; 24 h): 0.013 µg/g
- quantitative distribution, Blood plasma ([6]; 24 h): 0.011 µg/g
- quantitative distribution, Brain ([6]; 24 h): 0.007 µg/g
- quantitative distribution, Feces ([6]; 24 h): 0.041 µg/g
- quantitative distribution, Heart ([6]; 24 h): 0.022 µg/g
- quantitative distribution, Kidney ([6]; 24 h): 0.032 µg/g
- quantitative distribution, Large intestine ([6]; 24 h): 0.023 µg/g
- quantitative distribution, Liver ([6]; 24 h): 0.046 µg/g
- quantitative distribution, Lungs ([6]; 24 h): 0.028 µg/g
- quantitative distribution, Skeletal muscle ([6]; 24 h): 0.010 µg/g
- quantitative distribution, Small intestine ([6]; 24 h): 0.033 µg/g
- quantitative distribution, Spinal cord ([6]; 24 h): 0.018 µg/g
- quantitative distribution, Spleen ([6]; 24 h): 0.027 µg/g
- quantitative distribution, Stomach ([6]; 24 h): 0.023 µg/g
- quantitative distribution, Testis ([6]; 24 h): 0.017 µg/g
- quantitative distribution, Urine ([6]; 24 h): 0.046 µg/g
- solubility [7]: highly soluble in alcohols
